The text below walks through data of patent US8637525B2, “Compounds for the reduction of beta-amyloid production” (Bristol-Myers Squibb Company, priority 2009, dated 2014).

The subject of the assay is Aβ1-42 production. Put plainly: Cellular assay for inhibition of Aβ1-42 production (H4 APP751 SWE clone 8.20). It is filed as cell-based. Particulars: H4 APP751 SWE clone 8.20 cells, 19 h incubation. A digest of the protocol: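 19 h cell treatment, 37 °C/5% CO2. Detection of secreted Aβ42 in the cell plate: 565 (Aβ42-specific, Wallac) and 26D6 (N-terminal, APC), overnight 4 °C. IC50 from fitted curves.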

Where [1] appears, read: class symbols, read-out: Activity Rating (Aβ42 cellular IC50).
Setting [2] is: 19 h, class symbols, read-out: Activity Rating (Aβ42 cellular IC50).
The mark [3] stands for this setting: 19 h, read-out: Activity Rating (Aβ42 cellular IC50), numeric value.

The structures appear in SMILES notation. Counter-ions that a name gives are not always drawn. Like-named read-outs stand apart in the source and are kept apart here.

On to `COc1cc(Nc2nc3c(c(N4CCCC4C)n2)CCC3c2ccc(F)cc2)ccc1-n1cnc(Cl)c1` (single isomer, unassigned) [Example 19A, N-(4-(4-chloro-1H-imidazol-1-yl)-3-methoxyphenyl)-7-(4-fluorophenyl)-4-(2-methylpyrrolidin-1-yl)-6,7-dihydro-5H-cyclopenta[d]pyrimidin-2-amine], for which, under setting [1], the half-inhibitory concentration (IC50) is 10 to 100 nM.

Consider `CCNc1nc(Nc2ccc(-n3cnc(C)n3)c(F)c2)nc2c1CN(S(C)(=O)=O)CC2c1ccc(F)cc1` (stereo not drawn) [Example 156, N4-ethyl-N2-(3-fluoro-4-(3-methyl-1H-1,2,4-triazol-1-yl)pheny)-8-(4-fluorophenyl)-6-(methylsulfonyl)-5,6,7,8-tetrahydropyrido[4,3-d]pyrimidine-2,4-diamine], for which the IC50 under setting [2] lay in the range of 1.5 to 9.9 nM.

Consider `COc1cc(Nc2nc(NC3CCC3)c3c(n2)C(c2ccccc2)CC3)ccc1-n1cnc(Cl)c1` (stereo not drawn) [Example 9, N2-(4-(4-chloro-1H-imidazol-1-yl)-3-methoxyphenyl)-N4-cyclobutyl-7-phenyl-6,7-dihydro-5H-cyclopenta[d]pyrimidine-2,4-diamine], for which, under setting [3], the IC50 amounted to 8.1 nM.

Turning to `COc1cc(Nc2nc3c(c(N4CC(F)(F)C4)n2)CN(C)CC3c2ccc(F)cc2)ccc1-n1cnc(Cl)c1` (stereo not drawn) [Example 159, N-(4-(4-chloro-1H-imidazol-1-yl)-3-methoxyphenyl)-4-(3,3-difluoroazetidin-1-yl)-8-(4-fluorophenyl)-6-methyl-5,6,7,8-tetrahydropyrido[4,3-d]pyrimidin-2-amine], under setting [2], the IC50 fell in the range of 10 to 100 nM.

With `CNc1nc(Nc2ccnc(C)c2)nc2c1CCC2c1ccccc1` (stereo not drawn) [Example 216, N4-methyl-N2-(2-methylpyridin-4-yl)-7-phenyl-6,7-dihydro-5H-cyclopenta[d]pyrimidine-2,4-diamine], the IC50 under setting [2] was above 1000 nM.

As to `CCNc1nc(Nc2ccc(-n3cnc(Cl)c3)c(OC)c2)nc2c1COCC2c1cc(F)cc(F)c1` (stereo not drawn) [Example 112A, N2-(4-(4-chloro-1H-imidazol-1-yl)-3-methoxyphenyl)-8-(3,5-difluorophenyl)-N4-ethyl-7,8-dihydro-5H-pyrano[4,3-d]pyrimidine-2,4-diamine], the concentration for half-maximal inhibition (IC50) under setting [1] lay within 1.5 to 9.9 nM.

In the case of `CCNc1nc(Nc2ccc(-n3cnc(Cl)c3)c(OC)c2)nc2c1CN(CC(F)(F)F)CC2c1ccccc1` (stereo not drawn) [Example 196], under setting [1], the 50% inhibitory concentration (IC50) lay within 10 to 100 nM.

Consider `COc1cc(Nc2nc3c(c(N4CCCC4C)n2)CCC3c2ccc(F)cc2)ccc1-n1cnc(Cl)c1` (single isomer, unassigned) [Example 19B, N-(4-(4-chloro-1H-imidazol-1-yl)-3-methoxyphenyl)-7-(4-fluorophenyl)-4-(2-methylpyrrolidin-1-yl)-6,7-dihydro-5H-cyclopenta[d]pyrimidin-2-amine], for which the concentration for half-maximal inhibition (IC50) under setting [3] was found to be 59 nM.

For `COc1cc(Nc2nc3c(c(N(C)C(C)=O)n2)CCC3c2ccccc2)ccc1-n1cnc(Cl)c1` (stereo not drawn) [Example 212, N-(2-(4-(4-chloro-1H-imidazol-1-yl)-3-methoxyphenylamino)-7-phenyl-6,7-dihydro-5H-cyclopenta[d]pyrimidin-4-yl)-N-methylacetamide], the IC50 under setting [3] is 33 nM.

On to `CNc1nc(Nc2ccc(NC3(C#N)CC3)c(OC)c2)nc2c1CCC2c1ccccc1` (stereo not drawn) [Example 248, 1-(2-methoxy-4-(4-(methylamino)-7-phenyl-6,7-dihydro-5H-cyclopenta[d]pyrimidin-2-ylamino)phenylamino)cyclopropanecarbonitrile], for which the IC50 under setting [2] is above 1000 nM.

On to `CNc1nc(Nc2ccc(-n3cnc(Cl)c3)c(OC)c2)nc2c1COCC2c1ccc(C(F)(F)F)cc1` (racemic) [Example 120, N2-(4-(4-chloro-1H-imidazol-1-yl)-3-methoxyphenyl)-N4-methyl-8-(4-(trifluoromethyl)phenyl)-7,8-dihydro-5H-pyrano[4,3-d]pyrimidine-2,4-diamine, TFA], for which, under setting [2], the IC50 fell in the range of 10 to 100 nM.

Turning to `CNC1CN(c2nc(Nc3ccc(-n4cnc(Cl)c4)c(OC)c3)nc3c2CCC3c2ccc(F)cc2)C1` (stereo not drawn) [Example 33, N-(4-(4-chloro-1H-imidazol-1-yl)-3-methoxyphenyl)-7-(4-fluorophenyl)-4-(3-(methylamino)azetidin-1-yl)-6,7-dihydro-5H-cyclopenta[d]pyrimidin-2-amine], the half-inhibitory concentration (IC50) under setting [3] is 100 nM.

Consider `CNc1nc(Nc2ccc(-n3cnc(Cl)c3)c(OC)c2)nc2c1COCC2c1ccc(F)c(F)c1` (stereo not drawn) [Example 115B, N2-(4-(4-chloro-1H-imidazol-1-yl)-3-methoxyphenyl)-8-(3,4-difluorophenyl)-N4-methyl-7,8-dihydro-5H-pyrano[4,3-d]pyrimidine-2,4-diamine], for which the IC50 under setting [1] was 10 to 100 nM.

As for `CCNc1nc(Nc2ccc(-n3cnc(Cl)c3)c(OC)c2)nc2c1CCC2(C)c1ccccc1` (stereo not drawn) [Example 110B, N2-(4-(4-chloro-1H-imidazol-1-yl)-3-methoxyphenyl)-N4-ethyl-7-methyl-7-phenyl-6,7-dihydro-5H-cyclopenta[d]pyrimidine-2,4-diamine], the IC50 under setting [1] was 10 to 100 nM.

`CCN(C)c1nc(Nc2ccc(-n3cnc(Cl)c3)c(OC)c2)nc2c1CCCC2c1ccccc1` (racemic) [Example 124, N^2-(4-(4-Chloro-1H-imidazol-1-yl)-3-methoxyphenyl)-N^4-ethyl-N^4-methyl-8-phenyl-5,6,7,8-tetrahydroquinazoline-2,4-diamine]: the IC50 under setting [2] is 10 to 100 nM.

For the molecule `CCNc1nc(Nc2ccc(-n3cnc(Cl)c3)c(OC)c2)nc2c1CCN(CC)C2c1ccc(F)cc1` (single isomer, unassigned) [Example 169A, N2-(4-(4-chloro-1H-imidazol-1-yl)-3-methoxyphenyl)-N4,7-diethyl-8-(4-fluorophenyl)-5,6,7,8-tetrahydropyrido[3,4-d]pyrimidine-2,4-diamine], under setting [1], the IC50 was 1.5 to 9.9 nM.

For `COc1cc(Nc2nc3c(c(N4CCC(F)C4)n2)CCOC3c2ccc(F)cc2)ccc1-n1cnc(Cl)c1` (stereo in doubt) [Example 90A, N-(4-(4-chloro-1H-imidazol-1-yl)-3-methoxyphenyl)-8-(4-fluorophenyl)-4-((R)-3-fluoropyrrolidin-1-yl)-6,8-dihydro-5H-pyrano[3,4-d]pyrimidin-2-amine], the 50% inhibitory concentration (IC50) under setting [2] lay within 10 to 100 nM.

Consider `CCNc1nc(Nc2ccc(-n3cnc(Cl)c3)c(OC)c2)nc2c1CCOC2c1ccc(F)cc1` (racemic) [Example 88, N2-(4-(4-chloro-1H-imidazol-1-yl)-3-methoxyphenyl)-N4-ethyl-8-(4-fluorophenyl)-6,8-dihydro-5H-pyrano[3,4-d]pyrimidine-2,4-diamine], for which the IC50 under setting [2] was 10 to 100 nM.

With `COCC(Nc1nc(Nc2ccc(-n3cnc(Cl)c3)c(OC)c2)nc2c1CCC2c1ccc(F)cc1)C1CC1` (stereo not drawn) [Example 45B, N2-(4-(4-chloro-1H-imidazol-1-yl)-3-methoxyphenyl)-N4-(1-cyclopropyl-2-methoxyethyl)-7-(4-fluorophenyl)-6,7-dihydro-5H-cyclopenta[d]pyrimidine-2,4-diamine], under setting [3], the IC50 stood at 2.5 nM.

On to `CNc1nc(Nc2ccc(-n3cnc(C(F)F)c3)c(OC)c2)nc2c1CCC2c1ccc(F)cc1` (stereo not drawn) [Example 208, N2-(4-(4-(difluoromethyl)-1H-imidazol-1-yl)-3-methoxyphenyl)-7-(4-fluorophenyl)-N4-methyl-6,7-dihydro-5H-cyclopenta[d]pyrimidine-2,4-diamine], for which, under setting [2], the IC50 fell in the range of 10 to 100 nM.

Consider `CNc1nc(Nc2ccc(-n3cnc(Cl)c3)c(OC)c2)nc2c1CN(S(C)(=O)=O)CC2c1ccc(F)cc1` (stereo not drawn) [Example 154, N2-(4-(4-chloro-1H-imidazol-1-yl)-3-methoxyphenyl)-8-(4-fluorophenyl)-N4-methyl-6-(methylsulfonyl)-5,6,7,8-tetrahydropyrido[4,3-d]pyrimidine-2,4-diamine], for which, under setting [1], the IC50 is 10 to 100 nM.

Take `Cc1ncnn1-c1ccc(Nc2nc3c(c(N4CC(F)(F)C4)n2)CCC3c2ccc(F)cc2)cc1F` (single isomer, unassigned) [Example 16B, 4-(3,3-difluoroazetidin-1-yl)-N-(3-fluoro-4-(5-methyl-1H-1,2,4-triazol-1-yl)phenyl)-7-(4-fluorophenyl)-6,7-dihydro-5H-cyclopenta[d]pyrimidin-2-amine]: the IC50 under setting [1] lay in the range of 100 to 1000 nM.

Regarding `CCNc1nc(Nc2ccc(-n3cnc(Cl)c3)c(OC)c2)nc2c1CN(CC(F)F)CC2c1ccccc1` (stereo not drawn) [Example 197A, N4-ethyl-N2-(3-methoxy-4-(4-chloro-1H-13-imidazol-1-yl)phenyl)-8-phenyl-6-(2,2-difluoroethyl)-5,6,7,8-tetrahydropyrido[4,3-d]pyrimidine-2,4-diamine], the IC50 (read-out: Activity Rating (Aβ42 cellular IC50), numeric value) worked out at 60 nM.

As for `COc1cc(Nc2nc3c(c(N4CC[C@H](F)C4)n2)COC3c2ccc(F)cc2)ccc1-n1cnc(Cl)c1` (single isomer, unassigned) [Example 76], the half-maximal inhibitory concentration (IC50) under setting [2] was in the range of 10 to 100 nM.

Regarding `CCNc1nc(Nc2ccc(-n3cnc(Cl)c3)c(OC)c2)nc2c1CN(C(=O)OC)CC2c1ccccc1` (stereo not drawn) [Example 131A, Methyl 2-(4-(4-chloro-1H-imidazol-1-yl)-3-methoxyphenylamino)-4-(ethylamino)-8-phenyl-7,8-dihydropyrido[4,3-d]pyrimidine-6(5H)-carboxylate], the half-maximal inhibitory concentration (IC50) under setting [1] was in the range of 1.5 to 9.9 nM.

As for `COc1cc(Nc2nc3c(c(N4CCC(=O)C4)n2)CCC3c2ccccc2)ccc1-n1cnc(Cl)c1` (stereo not drawn) [Example 206, 1-(2-(4-(4-chloro-1H-imidazol-1-yl)-3-methoxyphenylamino)-7-phenyl-6,7-dihydro-5H-cyclopenta[d]pyrimidin-4-yl)pyrrolidin-3-one], the IC50 under setting [3] was determined as 15 nM.

Consider `CNc1nc(Nc2ccc(-n3cnc(Cl)c3)c(OC)c2)nc2c1COC2c1ccc(F)cc1` (single isomer, unassigned) [Example 79A, N^2-(4-(4-chloro-1H-imidazol-1-yl)-3-methoxyphenyl)-7-(4-fluorophenyl)-N^4-methyl-5,7-dihydrofuro[3,4-d]pyrimidine-2,4-diamine], for which the IC50 under setting [3] amounted to 5.8 nM.

By IC50 is commonly meant the concentration that gives 50% inhibition.
